# Source: ChEMBL document CHEMBL1131444, “The 16,17-double bond is needed for irreversible inhibition of human cytochrome p45017alpha by abiraterone (17-(3-pyridyl)androsta-5, 16-dien-3beta-ol) and related steroidal inhibitors” (J Med Chem, 1998)
# Target: T1, Steroid 17-alpha-hydroxylase/17,20 lyase (Homo sapiens, UniProt P05093)
# T1 sequence (P05093 whole entry): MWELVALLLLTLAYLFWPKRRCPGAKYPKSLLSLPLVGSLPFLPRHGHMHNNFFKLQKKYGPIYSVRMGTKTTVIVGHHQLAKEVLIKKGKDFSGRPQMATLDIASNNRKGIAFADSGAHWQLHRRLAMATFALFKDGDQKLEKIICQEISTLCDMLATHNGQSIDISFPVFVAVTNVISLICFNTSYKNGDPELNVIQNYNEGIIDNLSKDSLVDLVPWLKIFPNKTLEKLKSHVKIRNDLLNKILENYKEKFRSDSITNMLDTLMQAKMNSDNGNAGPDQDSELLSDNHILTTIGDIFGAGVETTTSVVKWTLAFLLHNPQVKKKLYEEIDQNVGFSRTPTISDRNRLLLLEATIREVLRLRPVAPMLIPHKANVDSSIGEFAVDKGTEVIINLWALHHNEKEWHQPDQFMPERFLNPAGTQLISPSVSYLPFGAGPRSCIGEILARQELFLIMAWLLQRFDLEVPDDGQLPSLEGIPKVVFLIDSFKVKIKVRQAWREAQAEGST
# Assay: Inhibition of human progesterone 17-alpha-hydroxylase.
row,IC50 [nM],SMILES
1,260,C[C@]12CC[C@H](O)C[C@@H]1CC[C@@H]1[C@@H]2CC[C@@]2(C)[C@H]1C[C@H]1O[C@]12c1cccnc1
2,74,C[C@]12CC[C@H](O)C[C@@H]1CC[C@@H]1[C@@H]2CC[C@]2(C)[C@@H](c3cccnc3)CC[C@@H]12
3,5,C[C@]12CC[C@H](O)C[C@@H]1CC[C@@H]1[C@@H]2CC[C@]2(C)C(c3cccnc3)CC[C@@H]12 (stereo not given in full)
4,27,"C[C@]12CCC3C(CC=C4C[C@@H](O)CC[C@@]43C)C1CCC2c1ccncc1 (single isomer, unassigned)"

row,SMILES,IC50 [nM]
1,C[C@]12CCC(=O)C=C1CCC1C2CC[C@]2(C)C(c3cccnc3)=CCC12 (stereo not given in full),3
